From PMC12524408 (International Journal of Molecular Sciences, 2025)
No end group written: not given here.

What was measured:
DSS-induced colitis = details: cited from earlier work; for Therapeutic effect in colitis: 25 nmol/kg subcutaneously, previous studies
Description: Nevertheless, the 25 nmol/kg dose was selected for further evaluation (Figure 5). […] The in vivo pharmacological studies were conducted by a contract research organization (CRO), LSI Medience Ltd. (Kumamoto, Japan), and were not in an academic setting. Although the studies were conducted professionally, a blinded evaluation was not implemented, which may have introduced bias. Additionally, histological analysis of the colonic tissue was not performed. […] Future pharmacologi ...

[1] = Stability (degradation) in human serum; format: in vitro ADME; details: pooled human serum, 100 μL in 200 μL (10 mM NaH2PO4 pH 7.1, 100 mM NaCl), 37 °C, 60 min; fluorescence immunoassay; mean, n = 3; read-out: % remaining in human serum after 60 min
From the text: Error bars are shorter than the symbol size.

20 kDa PEGylated AM ({PEG 20 kDa}-YRQSMNNFQGLRSFGCRFGTCTVQKLAHQIYQFTDKDKDNVAPRSKISPQGY; ends and bridges not checked; UniProt P35318 95-146, looked up) [20 k PEG-AM]
Therapeutic effect in colitis (DSS-induced colitis): significant therapeutic effects
Histological analysis of colonic tissue (DSS-induced colitis; previous study): histological improvements were observed, but were not statistically significant

60 kDa PEGylated AM ({PEG 60 kDa}-YRQSMNNFQGLRSFGCRFGTCTVQKLAHQIYQFTDKDKDNVAPRSKISPQGY; ends and bridges not checked; UniProt P35318 95-146, looked up) [60 k PEG-AM]
Therapeutic effect in colitis (DSS-induced colitis): significant therapeutic effects

CC[C@H](C)[C@H](NC(=O)[C@H](CCC(N)=O)NC(=O)[C@H](Cc1c[nH]cn1)NC(=O)[C@H](C)NC(=O)[C@H](CC(C)C)NC(=O)[C@H](CCCCN)NC(=O)[C@H](CCC(N)=O)NC(=O)[C@@H](NC(=O)[C@@H](NC(=O)[C@@H]1CSSC[C@H](NC(=O)CNC(=O)[C@H](Cc2ccccc2)NC(=O)[C@H](CO)NC(=O)[C@H](CCCNC(=N)N)NC(=O)[C@H](CC(C)C)NC(=O)CNC(=O)[C@H](CCC(N)=O)NC(=O)[C@H](Cc2ccccc2)NC(=O)[C@H](CC(N)=O)NC(=O)[C@H](CC(N)=O)NC(=O)[C@H](CCSC)NC(=O)[C@H](CO)NC(=O)[C@H](CCC(N)=O)NC(=O)[C@H](CCCNC(=N)N)NC(=O)[C@@H](N)Cc2ccc(O)cc2)C(=O)N[C@@H](CCCNC(=N)N)C(=O)N[C@@H](Cc2ccccc2)C(=O)NCC(=O)N[C@@H]([C@@H](C)O)C(=O)N1)[C@@H](C)O)C(C)C)C(=O)N[C@@H](Cc1ccc(O)cc1)C(=O)N[C@@H](CCC(N)=O)C(=O)N[C@@H](Cc1ccccc1)C(=O)N[C@H](C(=O)N[C@@H](CC(=O)O)C(=O)N[C@@H](CCCCN)C(=O)N[C@@H](CC(=O)O)C(=O)N[C@@H](CCCCN)C(=O)N[C@@H](CC(=O)O)C(=O)N[C@@H](CC(N)=O)C(=O)N[C@H](C(=O)N[C@@H](C)C(=O)N1CCC[C@H]1C(=O)N[C@@H](CCCNC(=N)N)C(=O)N[C@@H](CO)C(=O)N[C@@H](CCCCN)C(=O)N[C@H](C(=O)N[C@@H](CO)C(=O)N1CCC[C@H]1C(=O)N[C@@H](CCC(N)=O)C(=O)NCC(=O)N[C@@H](Cc1ccc(O)cc1)C(N)=O)[C@@H](C)CC)C(C)C)[C@@H](C)O [AM, Adrenomedullin]
remaining at 1 h [1]: 9.45%
